Data from patent publication US12454494B2, “Process for the reduction of gas emission from farm manure” (Alzchem Trostberg GmbH, priority 2018, dated 2025).

Test system: cattle liquid manure
Assay: Example 5: methane and CO2 emissions from cattle liquid manure during 170 days storage with Compositions 1, 2, 4, 5, 6
Conditions: cf. Example 5
Description: After stirring, the pH value and conductivity in the mixture were measured, and then the wide-neck container was immediately sealed tightly. An opening was drilled in the lid of the wide-neck container, in which a sealed gas storage bag (nominal volume 5.6 liters) was connected and in which the released gas volume was collected. This structure prevented atmospheric oxygen from entering the wide-neck container. This prevented CO2 from the air from falsifying the measurement results. The mixture was stored for exactly 170 days without stirring or agitation at a temperature of 23±1° C. and at an air pressure of 960 to 980 hPa and at 493 m above standard sea level (NHN). At regular intervals, the filled gas storage bag was exchanged, the stored gas volume was determined volumetrically, and the gas composition was analyzed by gas chromatography. […] After stirring, the pH value and conductivity in the mixture were measured, and then the wide-neck container was immediately sealed tightly. […] At regular intervals, the filled gas storage bag was exchanged, the stored gas volume was determined volumetrically, and the gas composition was analyzed by gas chromatography. […] After stirring, the pH value and conductivity in the mixture were measured, and then the wide-neck container was immediately sealed tightly. […]

Row | Compound | Effect alone on the emission of methane and carbon dioxide
1 | O=C([O-])[O-].[Ca+2] [calcium carbonate] | no impact
2 | [Ca+2].[OH-].[OH-] [calcium hydroxide] | additional effect
